US12226459B2, “Collagen hydrolysate for use in prevention and/or treatment of post intensive care syndrome (pics)” (ROUSSELOT B.V., priority 2022, dated 2025)

Test system: PICS mouse model
Assay: PICS score in PICS mouse model (sepsis/ICU-care model)
Type: in vivo
Details: follow-up study; fluoxetine 20 mg/kg, whey protein 1.8 g/kg, daily oral gavage; in contrast to collagen hydrolysate
Procedure: A validated PICS mouse model was used, which is based on the model of Hujinami et al. (J Clin Med. 2021 April; 10(8): 1593.). The model is proven to induce PICS by mimicking ICU care following polymicrobial sepsis. This is achieved by intraperitoneal injection with cecal slurry followed by other typical ICU-related interventions (i.e. antibiotics and saline administration) for 72 h. The model incorporates a specific combination of physical (grip strength test), mental (anxiety level), and cognitive (discrimination index, habituation index, exploration time) parameters that often characterize PICS.
The development of PICS in the model was first confirmed in a pilot study (not shown herein). The mice develop PICS after ˜1 week.
The mice (C57BL6J, Charles River laboratories, France) receive collagen hydrolysate (“CH”, Peptan, Porcine ˜1800 Da, Rousselot B. V.) or the relevant controls according to the following experimental groups: • 1. No PICS+vehicle (saline), i.e. “Control” • 2. PICS+vehicle (saline), i.e. “PICS” • 3. PICS+CH 1.8 g/kg (˜10 g clinical dose), i.e. “PICS+low dose CH” • 4. PICS+CH 8 g/kg (˜44 g clinical dose), i.e. “PICS+high dose CH”
The mice are administered once a day from day 12 through day 47.
Treatment is started 4 days after the induction of PICS. The CH or vehicle is administered by daily oral gavage for a duration of […] (day 12-47). […]

SMILES: CNCCC(Oc1ccc(C(F)(F)F)cc1)c1ccccc1 (stereo not shown) [fluoxetine]
- improvement in PICS score: little/no improvement
